Each compound was assayed on circBRIP1 in HCT116 cells (assay: DHX9 circBRIP1 cellular target engagement SYBR Green assay (qPCR)). Settings: Homo sapiens, HCT-116, circBRIP1, HCT116 cells; SyBr assay (marked ^+); read-out: DHX9 Cellular Target Engagement EC50.
Assay type: cell-based
`CS(=O)(=O)Nc1cc(Cl)cc(NC(=O)c2cnn(-c3ncccc3OCc3ccn[nH]3)c2)c1` [Example 253] gave an EC50 of 9230 nM. With `CS(=O)(=O)Nc1cc(Cl)cc(NC(=O)c2cc3c(F)c(F)ccc3s2)c1` [Example 324] the EC50 was 5900 nM. Compound `Cc1cc(C(=O)Nc2cc(Cl)cc(NS(=O)(=O)C3CC3)c2)cn1-c1ccc(N2CCOCC2)cn1` [Example 247] has an EC50 of 2240 nM. Compound `CS(=O)(=O)Nc1cc(Br)cc(NC(=O)c2cnn(-c3cc(C#N)ccn3)c2)c1` [Example 38] has an EC50 of 933 nM. Work on `CS(=O)(=O)Nc1cc(Br)cc(NC(=O)c2cnn(-c3ccc(F)cn3)c2)c1` [Example 39] yielded an EC50 of 884 nM. In the case of `CS(=O)(=O)Nc1cc(Cl)cc(NC(=O)c2csc(-c3ccccc3)c2)c1` [Example 124, N-(3-chloro-5-(methylsulfonamido)phenyl)-5-phenylthiophene-3-carboxamide], the EC50 is reported as 5140 nM. With `CS(=O)(=O)Nc1cc(Cl)cc(NC(=O)c2cnn(-c3ncccc3COc3cncc(F)c3)c2)c1` [Example 262] the EC50 was 439 nM. In the case of `Cn1cc(C(=O)Nc2cc(Cl)cc(NS(C)(=O)=O)c2)cc1-c1ccccc1` [Example 109], the EC50 is reported as 437 nM. In the case of `CC(=O)N1CCC(n2cc(C(=O)Nc3cc(Cl)cc(NS(C)(=O)=O)c3)cn2)CC1` [Example 317], the EC50 is reported as > 10000 nM. For `CS(=O)(=O)Nc1cc(Cl)cc(NC(=O)c2cnn(-c3ccccc3-c3cncc(F)c3)c2)c1` [Example 257], the EC50 was 2610 nM. In the case of `CS(=O)(=O)Nc1cc(Cl)cc(NC(=O)c2cc(-c3ccccc3)n(CC(F)(F)F)c2)c1` [Example 80], the EC50 is reported as 3090 nM. Compound `CS(=O)(=O)Nc1cc(Cl)cc(NC(=O)c2cnn(-c3ccc(C4CCOCC4)cn3)c2)c1` [Example 190] has an EC50 of 373 nM. Work on `CS(=O)(=O)Nc1cc(Cl)cc(NC(=O)c2cc3c(F)ccc(F)c3s2)c1` [Example 325] yielded an EC50 of 6090 nM. Work on `CS(=O)(=O)Nc1cc(Cl)cc(NC(=O)c2cnn(-c3ncccc3Oc3ncccn3)c2)c1` [Example 196] yielded an EC50 of 6730 nM. `CS(=O)(=O)Nc1cc(Br)cc(NC(=O)c2cnn(-c3cccc(C(F)F)n3)c2)c1` [Example 56] showed an EC50 of 7430 nM. `CS(=O)(=O)Nc1cc(Cl)cc(NC(=O)c2cc(N3CCN(CC(F)(F)F)CC3)cs2)c1` [Example 246] was tested, and the EC50 was 3930 nM. For `CS(=O)(=O)Nc1cc(Cl)cc(NC(=O)c2cc3cc(Cl)ccc3s2)c1` [Example 298], the EC50 was > 10000 nM. Compound `CS(=O)(=O)Nc1cc(Br)cc(NC(=O)c2cnn(-c3ccc(C#N)cn3)c2)c1` [Example 41] has an EC50 of 4340 nM. Work on `CS(=O)(=O)Nc1cc(Cl)cc(NC(=O)c2cnn(-c3ncccc3OCc3ccc(F)cc3)c2)c1` [Example 69] yielded an EC50 of 661 nM. With `CS(=O)(=O)Nc1cc(Cl)cc(NC(=O)c2cccc(-c3ccnc(Cl)c3)c2)c1` [Example 102, N-(3-chloro-5-(methylsulfonamido)phenyl)-3-(2-chloropyridin-4-yl)benzamide] the EC50 was > 30000 nM. For `Cc1sc(C(=O)Nc2cc(Cl)cc(NS(C)(=O)=O)c2)cc1-c1c(F)cccc1OCc1ccccc1` [Example 240], the EC50 was 228 nM. `CS(=O)(=O)Nc1cc(Cl)cc(NC(=O)c2cc(C(F)(F)F)n(-c3ccc(F)cn3)c2)c1` [Example 267] showed an EC50 of 2260 nM. Work on `Cc1sc(C(=O)Nc2cc(Cl)cc(NS(C)(=O)=O)c2)cc1-c1ccccc1` [Example 11] yielded an EC50 of 851 nM. With `CC(C)(O)COc1cccnc1-n1cc(C(=O)Nc2cc(Cl)cc(NS(C)(=O)=O)c2)cn1` [Example 195] the EC50 was 751 nM. With `Cc1cc(C(=O)Nc2cc(Cl)cc(NS(C)(=O)=O)c2)cn1-c1ccc(N2CCOC(C)(C)C2)cn1` [Example 272] the EC50 was 31.1 nM. `COc1ccc(-n2cc(C(=O)Nc3cc(Cl)cc(NS(C)(=O)=O)c3)cn2)nc1` [Example 197] was tested, and the EC50 was 2370 nM. `CS(=O)(=O)Nc1cc(Cl)cc(NC(=O)c2cnn(C3CCCC3)c2)c1` [Example 309] gave an EC50 of 3730 nM. `CS(=O)(=O)Nc1cc(F)cc(NC(=O)c2cc(-c3ccccc3O)cs2)c1` [Example 114] was tested, and the EC50 was 1480 nM. `Cn1nc(-c2ccccn2)cc1C(=O)Nc1cc(Cl)cc(NS(C)(=O)=O)c1` [Example 141] was tested, and the EC50 was > 10000 nM. `CS(=O)(=O)Nc1cc(Cl)cc(NC(=O)c2cc3cc(F)ccc3s2)c1` [Example 295] was tested, and the EC50 was > 10000 nM. For `CSc1ccc(-n2cc(C(=O)Nc3cc(Cl)cc(NS(C)(=O)=O)c3)cn2)nc1` [Example 218], the EC50 was 1390 nM. `CS(=O)(=O)Nc1cc(Cl)cc(NC(=O)c2cc3ccccn3c2)c1` [Example 209] was tested, and the EC50 was 3460 nM. `CS(=O)(=O)Nc1cc(Cl)cc(NC(=O)c2cnn(-c3c(F)cccc3OCc3cccc(F)c3)c2)c1` [Example 211] showed an EC50 of 189 nM. For `Cn1cc(C(=O)Nc2cc(Cl)cc(NS(C)(=O)=O)c2)cc1N1CCCCC1=O` [Example 158, N-(3-chloro-5-(methylsulfonamido)phenyl)-1-methyl-5-(2-oxopiperidin-1-yl)-1H-pyrrole-3-carboxamide], the EC50 was 1290 nM. `CS(=O)(=O)Nc1cc(Cl)cc(NC(=O)c2cnn(C3CCNCC3)c2)c1` [Example 145, N-(3-chloro-5-(methylsulfonamido)phenyl)-1-(piperidin-4-yl)-1H-pyrazole-4-carboxamide] was tested, and the EC50 was > 10000 nM. In the case of `CS(=O)(=O)Nc1cc(F)cc(NC(=O)c2cc(-c3ccccn3)cs2)c1` [Example 112, N-(3-fluoro-5-(methylsulfonamido)phenyl)-4-(pyridin-2-yl)thiophene-2-carboxamide], the EC50 is reported as 627 nM. With `CS(=O)(=O)Nc1cc(Cl)cc(NC(=O)c2cnn([C@@H]3CCCC[C@@H]3O)c2)c1` (relative stereo) [Example 153, N-(3-chloro-5-(methylsulfonamido)phenyl)-1-(2-cis-hydroxycyclohexyl)-1H-pyrazole-4-carboxamide] the EC50 was 6110 nM. Work on `CCn1cc(C(=O)Nc2cc(Cl)cc(NS(C)(=O)=O)c2)cc1-c1ccccc1` [Example 79, N-(3-chloro-5-(methylsulfonamido)phenyl)-1-ethyl-5-phenyl-1H-pyrrole-3-carboxamide] yielded an EC50 of 1120 nM. `CC(Oc1cccnc1-n1cc(C(=O)Nc2cc(Cl)cc(NS(C)(=O)=O)c2)cn1)c1ccccc1` (centres unmarked) [Example 62] gave an EC50 of 6800 nM. `CS(=O)(=O)Nc1cc(Cl)cc(NC(=O)c2cnn(C3CCOC3)c2)c1` (centres unmarked) [Example 182] was tested, and the EC50 was > 10000 nM. With `CS(=O)(=O)Nc1cc(Cl)cc(NC(=O)c2cnn(CCO)c2)c1` [Example 127] the EC50 was > 10000 nM. With `CS(=O)(=O)Nc1cc(Cl)cc(NC(=O)c2cnn(C3CC4(CC(N)C4)C3)c2)c1` (centres unmarked) [Example 319] the EC50 was > 10000 nM. In the case of `Cc1cncc2cc(C(=O)Nc3cc(Cl)cc(NS(C)(=O)=O)c3)sc12` [Example 290], the EC50 is reported as > 10000 nM. `CN(C)S(=O)(=O)c1ccc(-n2cc(C(=O)Nc3cc(Cl)cc(NS(C)(=O)=O)c3)cn2)nc1` [Example 200] showed an EC50 of 1310 nM. With `CCS(=O)(=O)Nc1cc(Cl)cc(NC(=O)c2cc(C)n(-c3ccc(N4CCOCC4)cn3)c2)c1` [Example 249] the EC50 was 29.5 nM. For `CS(=O)(=O)Nc1cc(Cl)cc(NC(=O)c2cnn(-c3ncccc3OCc3ncc[nH]3)c2)c1` [Example 252], the EC50 was 1790 nM. `CCn1cc(C(=O)Nc2cc(Cl)cc(NS(C)(=O)=O)c2)cc1-c1ccc(N2CCOCC2)cn1` [Example 274] showed an EC50 of 97.9 nM. Compound `CS(=O)(=O)Nc1cc(Cl)cc(NC(=O)c2cc(-c3ncccc3NC(=O)C3CC3)cs2)c1` [Example 220] has an EC50 of 303 nM. `CN(C)C(=O)Cc1cccnc1-c1csc(C(=O)Nc2cc(Cl)cc(NS(C)(=O)=O)c2)c1` [Example 221] gave an EC50 of 121 nM. Compound `CS(=O)(=O)Nc1cc(Cl)cc(NC(=O)c2cnn(-c3ncccc3OCc3ccccc3F)c2)c1` [Example 189] has an EC50 of 308 nM. For `CS(=O)(=O)Nc1cc(Cl)cc(NC(=O)c2cnn(-c3ncccc3S(C)(=O)=O)c2)c1` [Example 199], the EC50 was > 10000 nM. `CS(=O)(=O)Nc1cc(Cl)cc(NC(=O)c2cc(-c3ncc(F)cn3)cs2)c1` [Example 338] gave an EC50 of 126 nM. `Cc1ccc(C(=O)Nc2cc(Br)cc(NS(C)(=O)=O)c2)cc1-n1cccn1` [Example 10] was tested, and the EC50 was 12300 nM.

Same assay, conditions: Homo sapiens, HCT-116, circBRIP1, HCT116 cells; ^+ SyBr assay was used; read-out: DHX9 Cellular Target Engagement EC50
Compound `Cc1cc(C(=O)Nc2cc(Cl)cc(NS(C)(=O)=O)c2)cn1-c1ccc(N(C)C2CCOC2)cn1` (centres unmarked) [Example 674] has an EC50 of 28.9 nM. `CS(=O)(=O)Nc1cc(Cl)cc(NC(=O)c2cnn(-c3ncc(F)cc3OCc3cnco3)c2)c1` [Example 719] gave an EC50 of 2280 nM. `CN1CCN(c2csc(C(=O)Nc3cc(Cl)cc(NS(C)(=O)=O)c3)c2)CC1=O` [Example 661] was tested, and the EC50 was > 10000 nM. `CS(=O)(=O)Nc1cc(Cl)cc(NC(=O)c2cc(-c3ccc(F)cn3)n(CCO)c2)c1` [Example 689] was tested, and the EC50 was 340 nM. Compound `Cc1sc(C(=O)Nc2cc(Cl)cc(NS(C)(=O)=O)c2)cc1N1C(=O)N(c2ccccn2)C(C)(C)C1=O` [Example 685] has an EC50 of 769 nM. With `Cc1sc(C(=O)Nc2cc(Cl)cc(NS(C)(=O)=O)c2)cc1-c1ncc(F)cc1-c1ccc(=O)n(C)c1` [Example 606] the EC50 was 1510 nM. `CS(=O)(=O)Nc1cc(Cl)cc(NC(=O)c2cc(C(=O)N3CC4(CNC4)C3)n(-c3ccccn3)c2)c1` [Example 643] was tested, and the EC50 was > 10000 nM. Compound `Cc1cc(C(=O)Nc2cc(Cl)cc(NS(C)(=O)=O)c2)cn1-c1ccc(C#N)cn1` [Example 425] has an EC50 of 193 nM. `CS(=O)(=O)Nc1cc(Cl)cc(NC(=O)c2cc3c(s2)CCC3Oc2cccnc2)c1` (centres unmarked) [Example 687] was tested, and the EC50 was 3560 nM. `Cc1sc(C(=O)Nc2cc(Cl)cc(NS(C)(=O)=O)c2)cc1N1CCCC1=O` [Example 434] gave an EC50 of 2320 nM. For `Cc1cc(C(=O)Nc2cc(Cl)cc(NS(C)(=O)=O)c2)cn1-c1ncc(Cl)cn1` [Example 578], the EC50 was 491 nM. With `CCOc1cnc(-n2cc(C(=O)Nc3cc(Cl)cc(NS(C)(=O)=O)c3)cc2C(F)(F)F)nc1` [Example 693] the EC50 was 858 nM. For `CS(=O)(=O)Nc1cc(Cl)cc(NC(=O)c2cnn(-c3ncc(N4CC5(COC5)C4)cc3O)c2)c1` [Example 691], the EC50 was 291 nM.

Same assay, conditions: Homo sapiens, HCT-116, read-out: DHX9 Cellular Target Engagement EC50
With `CS(=O)(=O)Nc1cc(Cl)cc(NC(=O)c2cnn(-c3ncccc3NCc3ccccc3)c2)c1` [Example 168, 1-(3-(benzylamino)pyridin-2-yl)-N-(3-chloro-5-(methylsulfonamido)phenyl)-1H-pyrazole-4-carboxamide] the EC50 was 2130 nM.

Same assay, conditions: circBRIP1, HCT116 cells; SyBr assay (marked ^+); read-out: DHX9 Cellular Target Engagement EC50
With `CCc1sc(C(=O)Nc2cc(Cl)cc(NS(C)(=O)=O)c2)cc1-c1ccccn1` [Example 232] the EC50 was 61 nM.
